ChEMBL document CHEMBL4433232, “Tool inhibitors and assays to interrogate the biology of the TRAF2 and NCK interacting kinase” (Bioorg Med Chem Lett, 2019)
Calls of active or inactive are those of the source. The calls are words filed in the database; no cut-off is given here.

Experiments:
[1] = molecular target: T1, TRAF2 and NCK-interacting protein kinase (Homo sapiens, UniProt Q9UKE5); experiment: Inhibition of human full length TNIK in HEK293 cells co-transfected with full length SMAD1 incubated for 2 hrs by ELISA; assay type: cell-based
Target sequence in this assay (Q9UKE5 whole entry): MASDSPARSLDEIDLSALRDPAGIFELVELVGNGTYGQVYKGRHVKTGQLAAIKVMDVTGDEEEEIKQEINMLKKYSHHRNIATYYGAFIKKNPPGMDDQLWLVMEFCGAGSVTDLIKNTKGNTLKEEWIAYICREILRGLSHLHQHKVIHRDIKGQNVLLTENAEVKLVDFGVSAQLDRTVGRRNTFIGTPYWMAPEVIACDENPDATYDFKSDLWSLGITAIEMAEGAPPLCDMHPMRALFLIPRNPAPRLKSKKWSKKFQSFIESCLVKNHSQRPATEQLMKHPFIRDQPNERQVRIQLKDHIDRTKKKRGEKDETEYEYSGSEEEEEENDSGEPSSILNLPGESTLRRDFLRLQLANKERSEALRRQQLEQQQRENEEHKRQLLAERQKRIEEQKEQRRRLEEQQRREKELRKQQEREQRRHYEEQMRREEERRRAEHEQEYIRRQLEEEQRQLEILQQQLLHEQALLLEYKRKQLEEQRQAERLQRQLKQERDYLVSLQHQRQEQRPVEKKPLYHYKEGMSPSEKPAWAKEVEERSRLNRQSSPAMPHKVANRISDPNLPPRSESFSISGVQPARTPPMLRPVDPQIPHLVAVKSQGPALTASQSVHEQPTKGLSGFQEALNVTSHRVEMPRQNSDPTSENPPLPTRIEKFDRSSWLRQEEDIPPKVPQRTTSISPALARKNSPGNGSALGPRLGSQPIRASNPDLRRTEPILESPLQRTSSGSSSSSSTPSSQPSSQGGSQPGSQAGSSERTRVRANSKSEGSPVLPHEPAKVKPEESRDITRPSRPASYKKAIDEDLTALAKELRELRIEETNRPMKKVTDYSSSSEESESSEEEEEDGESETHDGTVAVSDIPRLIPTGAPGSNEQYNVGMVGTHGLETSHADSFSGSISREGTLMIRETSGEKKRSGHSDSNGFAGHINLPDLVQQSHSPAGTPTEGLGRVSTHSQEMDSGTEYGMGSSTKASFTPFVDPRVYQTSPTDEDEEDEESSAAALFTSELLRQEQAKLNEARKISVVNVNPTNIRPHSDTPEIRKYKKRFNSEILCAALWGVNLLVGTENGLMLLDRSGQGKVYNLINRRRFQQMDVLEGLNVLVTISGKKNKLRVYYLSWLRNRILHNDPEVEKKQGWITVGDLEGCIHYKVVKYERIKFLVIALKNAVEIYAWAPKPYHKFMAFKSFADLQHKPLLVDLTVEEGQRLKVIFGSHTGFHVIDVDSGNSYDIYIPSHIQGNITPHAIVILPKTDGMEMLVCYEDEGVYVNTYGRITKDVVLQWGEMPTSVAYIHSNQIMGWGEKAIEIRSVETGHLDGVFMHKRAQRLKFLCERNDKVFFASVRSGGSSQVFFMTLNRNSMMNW

[2] = molecular target: T1, TRAF2 and NCK-interacting protein kinase; experiment: Inhibition of human full length TNIK in HEK293 cells co-transfected with full length SMAD1 up to 30 uM incubated for 2 hrs by ELISA; assay type: cell-based
Target sequence in this assay (Q9UKE5 whole entry, looked up): as the sequence (Q9UKE5 whole entry) above

[3] = molecular target: T2, Mitogen-activated protein kinase kinase kinase kinase 4 (Homo sapiens, UniProt O95819); experiment: Inhibition of human 6His-TEV-SHM-MAP4K4(2 to 328)-GNS expressed in baculovirus-infected sf21 cells using LRRKtide as substrate preincubated for 30 mins followed by substrate addition and measured after 75 to 90 mins by ADP-Glo Reagent based method
Target sequence in this assay (O95819 whole entry): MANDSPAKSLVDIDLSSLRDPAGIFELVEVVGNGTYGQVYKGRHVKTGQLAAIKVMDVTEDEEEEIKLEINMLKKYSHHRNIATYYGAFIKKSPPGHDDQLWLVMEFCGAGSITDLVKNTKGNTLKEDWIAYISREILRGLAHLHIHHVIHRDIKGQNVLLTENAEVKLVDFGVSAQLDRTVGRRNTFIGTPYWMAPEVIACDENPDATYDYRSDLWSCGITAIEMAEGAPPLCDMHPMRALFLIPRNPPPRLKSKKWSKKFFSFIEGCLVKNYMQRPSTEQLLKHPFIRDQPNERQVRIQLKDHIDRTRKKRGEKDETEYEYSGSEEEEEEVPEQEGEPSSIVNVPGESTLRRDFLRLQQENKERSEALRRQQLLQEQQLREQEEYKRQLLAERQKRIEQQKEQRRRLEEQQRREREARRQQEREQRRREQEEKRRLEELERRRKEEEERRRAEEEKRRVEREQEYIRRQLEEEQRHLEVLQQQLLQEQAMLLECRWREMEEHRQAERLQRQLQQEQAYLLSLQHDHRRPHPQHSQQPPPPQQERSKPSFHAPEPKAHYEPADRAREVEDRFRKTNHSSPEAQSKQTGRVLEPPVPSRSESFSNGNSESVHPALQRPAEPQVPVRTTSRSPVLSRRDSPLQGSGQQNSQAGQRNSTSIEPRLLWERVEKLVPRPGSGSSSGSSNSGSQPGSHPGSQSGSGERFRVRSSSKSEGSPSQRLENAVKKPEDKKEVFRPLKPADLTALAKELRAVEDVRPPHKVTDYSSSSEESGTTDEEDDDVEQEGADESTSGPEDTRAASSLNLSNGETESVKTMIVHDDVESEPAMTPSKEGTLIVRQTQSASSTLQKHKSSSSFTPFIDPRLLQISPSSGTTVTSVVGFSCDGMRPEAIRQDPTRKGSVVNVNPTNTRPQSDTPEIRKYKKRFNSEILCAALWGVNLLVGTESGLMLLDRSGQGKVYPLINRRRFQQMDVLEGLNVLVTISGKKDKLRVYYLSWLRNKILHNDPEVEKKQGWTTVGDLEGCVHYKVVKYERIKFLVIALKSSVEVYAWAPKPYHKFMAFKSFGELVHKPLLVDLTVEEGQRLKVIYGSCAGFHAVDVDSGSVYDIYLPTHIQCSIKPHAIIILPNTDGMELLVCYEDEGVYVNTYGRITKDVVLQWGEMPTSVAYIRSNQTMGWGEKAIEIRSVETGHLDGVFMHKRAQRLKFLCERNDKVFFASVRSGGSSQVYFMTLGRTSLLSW

Misshapen-like kinase 1 [4] = molecular target: T3, Misshapen-like kinase 1 (Homo sapiens, UniProt Q8N4C8); experiment: Inhibition of human full length MINK1(1-1332)-G5-Avi-6His-Flag expressed in baculovirus-infected sf21 cells using His6-SMAD1 as substrate preincubated for 30 mins followed by substrate addition and measured after 120 mins by ADP-Glo Reagent based method
[5] = molecular target: T1, TRAF2 and NCK-interacting protein kinase; experiment: Inhibition of human TNIK in human iPSC derived neuronal progenitor cells assessed as reduction in motif phosphorylation at 10 uM after 6 hrs with presence of okadaic acid by Western blot analysis
Target sequence in this assay (Q9UKE5 whole entry, looked up): as the sequence (Q9UKE5 whole entry) above

[6] = molecular target: T2, Mitogen-activated protein kinase kinase kinase kinase 4; experiment: Inhibition of human full length MAP4K4(1-1239)-G5-Avi-6His-Flag expressed in baculovirus-infected sf21 cells using His6-SMAD1 as substrate preincubated for 30 mins followed by substrate addition and measured after 120 mins by ADP-Glo Reagent based method
Target sequence in this assay (O95819 whole entry): as the sequence (O95819 whole entry) above

[7] = molecular target: T1, TRAF2 and NCK-interacting protein kinase; experiment: Inhibition of human 6His-TEV-TNIK(1 to 325) expressed in baculovirus-infected sf21 cells using LRRKtide as substrate preincubated for 30 mins followed by substrate addition and measured after 75 to 90 mins by ADP-Glo Reagent based method
Target sequence in this assay (Q9UKE5 whole entry): as the sequence (Q9UKE5 whole entry) above

Misshapen-like kinase 1 [8] = molecular target: T3, Misshapen-like kinase 1; experiment: Inhibition of human 6His-TEV-Avi-MINK1(1 to 328)-GNS expressed in baculovirus-infected sf21 cells using LRRKtide as substrate preincubated for 30 mins followed by substrate addition and measured after 75 to 90 mins by ADP-Glo Reagent based method
[9] = molecular target: T1, TRAF2 and NCK-interacting protein kinase; experiment: Inhibition of human full length TNIK(1-1360)-G5-Avi-6His-Flag expressed in baculovirus-infected sf21 cells using His6-SMAD1 as substrate preincubated for 30 mins followed by substrate addition and measured after 120 mins by ADP-Glo Reagent based method
Target sequence in this assay (Q9UKE5 whole entry): as above

[10] = molecular target: T4, Interleukin-1 receptor-associated kinase 3 (Homo sapiens) (UniProt Q9Y616); experiment: Inhibition of IRAK3 (unknown origin) at 0.1 uM relative to control
T4 sequence (whole entry): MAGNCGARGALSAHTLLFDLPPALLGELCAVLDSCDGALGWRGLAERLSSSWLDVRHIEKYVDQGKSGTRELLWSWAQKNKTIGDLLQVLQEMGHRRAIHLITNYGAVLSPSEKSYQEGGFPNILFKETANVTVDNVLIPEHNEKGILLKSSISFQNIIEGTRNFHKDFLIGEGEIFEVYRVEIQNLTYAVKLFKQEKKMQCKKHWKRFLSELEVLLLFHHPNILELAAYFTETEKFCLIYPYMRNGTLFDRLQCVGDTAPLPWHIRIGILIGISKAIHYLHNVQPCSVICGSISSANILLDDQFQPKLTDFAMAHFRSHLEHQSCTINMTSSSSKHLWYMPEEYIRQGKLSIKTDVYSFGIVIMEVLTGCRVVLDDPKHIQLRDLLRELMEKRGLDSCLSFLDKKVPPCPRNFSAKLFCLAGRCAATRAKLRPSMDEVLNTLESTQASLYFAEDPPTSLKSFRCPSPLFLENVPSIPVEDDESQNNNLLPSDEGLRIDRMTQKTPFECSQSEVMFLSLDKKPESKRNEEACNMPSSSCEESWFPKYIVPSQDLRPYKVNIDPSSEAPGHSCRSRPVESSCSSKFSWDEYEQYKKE

Saccharomyces cerevisiae = experiment: Inhibition of Saccharomyces cerevisiae CDC7/DBF4 at 0.1 uM relative to control
[11] = molecular target: Leucine-rich repeat serine/threonine-protein kinase 2 (Homo sapiens) (UniProt Q5S007); experiment: Inhibition of full length LRRK2 (unknown origin) at 0.1 uM relative to control
[12] = molecular target: AP2-associated protein kinase 1 (Homo sapiens) (UniProt Q2M2I8); experiment: Inhibition of AAK1 (unknown origin) at 0.1 uM relative to control
[13] = molecular target: Leucine-rich repeat serine/threonine-protein kinase 2 (Homo sapiens) (UniProt Q5S007); experiment: Inhibition of LRRK2 (unknown origin) at 0.1 uM relative to control
[14] = molecular target: T2, Mitogen-activated protein kinase kinase kinase kinase 4; experiment: Inhibition of MAP4K4 (unknown origin) at 0.1 uM relative to control
[15] = molecular target: T5, Myosin light chain kinase family member 4 (Homo sapiens) (UniProt Q86YV6); experiment: Inhibition of MYLK4 (unknown origin) at 0.1 uM relative to control
T5 sequence (whole entry): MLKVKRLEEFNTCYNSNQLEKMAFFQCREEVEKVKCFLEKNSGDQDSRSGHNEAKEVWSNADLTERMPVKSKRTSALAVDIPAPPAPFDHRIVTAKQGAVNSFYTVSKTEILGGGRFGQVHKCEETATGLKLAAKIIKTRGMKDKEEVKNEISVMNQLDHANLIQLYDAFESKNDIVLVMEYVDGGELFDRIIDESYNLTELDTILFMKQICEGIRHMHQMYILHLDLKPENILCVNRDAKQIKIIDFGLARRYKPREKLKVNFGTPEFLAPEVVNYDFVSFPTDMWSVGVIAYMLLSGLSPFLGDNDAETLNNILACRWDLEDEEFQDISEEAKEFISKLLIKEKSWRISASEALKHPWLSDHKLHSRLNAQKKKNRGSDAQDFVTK

[16] = molecular target: Dual specificity protein kinase CLK4 (Homo sapiens) (UniProt Q9HAZ1); experiment: Inhibition of CLK4 (unknown origin) at 0.1 uM relative to control

T3 sequence (Q8N4C8 whole entry): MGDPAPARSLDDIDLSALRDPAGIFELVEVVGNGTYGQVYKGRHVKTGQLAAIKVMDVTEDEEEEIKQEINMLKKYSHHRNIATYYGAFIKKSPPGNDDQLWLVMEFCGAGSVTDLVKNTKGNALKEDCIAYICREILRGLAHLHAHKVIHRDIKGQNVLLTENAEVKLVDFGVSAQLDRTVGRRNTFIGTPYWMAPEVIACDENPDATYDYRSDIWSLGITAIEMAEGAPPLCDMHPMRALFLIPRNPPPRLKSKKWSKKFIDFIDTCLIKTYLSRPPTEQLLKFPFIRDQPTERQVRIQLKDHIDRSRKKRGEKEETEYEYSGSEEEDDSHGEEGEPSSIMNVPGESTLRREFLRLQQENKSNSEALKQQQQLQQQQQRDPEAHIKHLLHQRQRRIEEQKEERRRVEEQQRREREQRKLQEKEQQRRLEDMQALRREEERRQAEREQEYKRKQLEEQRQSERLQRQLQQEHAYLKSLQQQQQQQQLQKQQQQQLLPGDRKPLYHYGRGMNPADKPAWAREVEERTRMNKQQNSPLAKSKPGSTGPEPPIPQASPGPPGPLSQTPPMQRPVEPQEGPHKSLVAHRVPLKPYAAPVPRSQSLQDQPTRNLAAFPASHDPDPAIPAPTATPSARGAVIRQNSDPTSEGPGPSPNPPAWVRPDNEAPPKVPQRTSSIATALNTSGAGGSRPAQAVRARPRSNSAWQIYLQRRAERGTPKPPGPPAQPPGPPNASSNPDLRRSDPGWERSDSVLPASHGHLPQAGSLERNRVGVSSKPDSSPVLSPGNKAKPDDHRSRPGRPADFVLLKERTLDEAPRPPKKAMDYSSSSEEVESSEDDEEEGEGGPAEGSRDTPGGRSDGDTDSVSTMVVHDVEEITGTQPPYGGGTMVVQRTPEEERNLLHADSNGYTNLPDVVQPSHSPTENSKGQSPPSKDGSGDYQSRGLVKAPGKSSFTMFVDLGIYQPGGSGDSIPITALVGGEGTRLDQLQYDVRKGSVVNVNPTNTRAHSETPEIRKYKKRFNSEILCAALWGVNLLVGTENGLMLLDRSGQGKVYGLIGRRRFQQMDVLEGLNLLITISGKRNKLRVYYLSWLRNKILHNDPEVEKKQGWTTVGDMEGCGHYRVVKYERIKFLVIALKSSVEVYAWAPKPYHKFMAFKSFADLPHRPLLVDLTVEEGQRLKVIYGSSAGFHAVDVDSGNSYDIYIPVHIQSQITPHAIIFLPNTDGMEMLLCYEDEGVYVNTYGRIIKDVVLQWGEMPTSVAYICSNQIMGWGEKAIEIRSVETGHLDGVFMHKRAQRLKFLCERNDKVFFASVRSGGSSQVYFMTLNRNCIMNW
AP2-associated protein kinase 1 (Homo sapiens), sequence (Q2M2I8 whole entry, looked up): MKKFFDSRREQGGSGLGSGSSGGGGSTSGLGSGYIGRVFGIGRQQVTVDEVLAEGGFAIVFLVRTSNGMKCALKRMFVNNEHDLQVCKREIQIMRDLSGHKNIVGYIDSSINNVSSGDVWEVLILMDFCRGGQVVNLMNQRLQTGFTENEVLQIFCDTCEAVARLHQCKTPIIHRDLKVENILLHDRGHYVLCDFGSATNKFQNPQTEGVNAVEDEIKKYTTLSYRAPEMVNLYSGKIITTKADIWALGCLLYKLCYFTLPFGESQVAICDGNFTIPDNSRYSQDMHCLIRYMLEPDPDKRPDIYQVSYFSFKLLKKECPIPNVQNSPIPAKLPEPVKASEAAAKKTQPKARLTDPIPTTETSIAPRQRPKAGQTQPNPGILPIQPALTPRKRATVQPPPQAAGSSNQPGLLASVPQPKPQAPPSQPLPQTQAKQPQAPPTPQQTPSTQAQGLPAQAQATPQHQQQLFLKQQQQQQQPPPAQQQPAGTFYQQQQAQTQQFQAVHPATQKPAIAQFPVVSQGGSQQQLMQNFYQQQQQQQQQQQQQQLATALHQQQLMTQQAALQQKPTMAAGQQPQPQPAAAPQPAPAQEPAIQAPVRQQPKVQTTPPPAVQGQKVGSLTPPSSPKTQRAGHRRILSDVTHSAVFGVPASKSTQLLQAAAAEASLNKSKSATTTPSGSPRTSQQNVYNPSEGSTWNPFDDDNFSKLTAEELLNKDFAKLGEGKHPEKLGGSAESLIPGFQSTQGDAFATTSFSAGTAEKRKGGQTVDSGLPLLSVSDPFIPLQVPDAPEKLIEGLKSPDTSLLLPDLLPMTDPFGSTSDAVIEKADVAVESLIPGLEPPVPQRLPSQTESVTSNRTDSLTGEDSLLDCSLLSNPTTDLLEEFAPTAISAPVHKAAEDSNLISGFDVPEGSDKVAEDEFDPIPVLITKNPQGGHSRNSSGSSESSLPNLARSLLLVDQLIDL

IC50 ([1]; read-out: pIC50 (converted)) [µM] | inhibition [2] | IC50 ([3]; read-out: pIC50 (converted)) [µM] | IC50 (Misshapen-like kinase 1 [4]) [µM] | inhibition [5] | IC50 [6] [µM] | IC50 ([7]; read-out: pIC50 (converted)) [µM] | IC50 (Misshapen-like kinase 1 [8]; read-out: pIC50 (converted)) [µM] | IC50 [9] [µM] | IC50 ([1]; read-out: IC50) [µM] | SMILES | also measured
> 31.6 | inactive | 20 | 3.98 | inactive | 3.98 | 15.8 | 25.1 | 5.01 | – | Fc1cc(-c2ccc3ccncc3n2)ccn1 | –
1.26 | – | 0.0126 | 0.0398 | Active | 0.0251 | 0.0794 | 0.126 | 0.0398 | 0.93 | CC(C)NC(=O)c1ccc(-c2cnc(N)c(-c3ccc(C#N)cc3)c2)cc1 | –
> 31.6 | inactive | 15.8 | 6.31 | inactive | 7.94 | 3.98 | 20 | 3.98 | – | CN(C)c1ncc(-c2ccc(O)cc2)cc1-c1ccc(S(C)(=O)=O)cc1 | –
– | – | 0.158 | – | – | – | 0.158 | 0.2 | – | – | Nc1ncnc2ccc(-c3ccnc(F)c3)nc12 | IC50 ([3]; read-out: IC50): 0.15 to 0.2 µM; IC50 ([7]; read-out: IC50): 0.15 to 0.2 µM; IC50 (Misshapen-like kinase 1 [8]; read-out: IC50): 0.15 to 0.2 µM
– | – | 0.0316 | 0.0126 | Active | 0.02 | 0.0126 | 0.0501 | 0.00794 | 1.13 | Nc1ncc(Br)c2ccc(-c3ccnc(F)c3)nc12 | inhibition [10]: 90%; inhibition (Saccharomyces cerevisiae): 56%; inhibition [11]: 61%; inhibition [12]: 95%; inhibition [13]: 54%; inhibition [14]: 99%; inhibition [15]: 73%; inhibition [16]: 51%
> 31.6 | inactive | 20 | 63.1 | inactive | 50.1 | 25.1 | 25.1 | 25.1 | – | CC(C)NC(=O)c1ccc(-c2cnc(N(C)C)c(-c3ccc(C#N)cc3)c2)cc1 | –
– | – | – | 0.0158 | Active | – | 0.01 | 0.0398 | 0.01 | 0.47 | CS(=O)(=O)c1ccc(-c2cc(-c3ccc(O)cc3)cnc2N)cc1 | –
– | – | 0.158 | – | – | – | 0.126 | 0.2 | – | – | CC(C)(O)c1cnc(N)c2nc(-c3ccnc(F)c3)ccc12 | –
